Like-named read-outs stand apart in the source and are kept apart here.
Key:
Experiment in all cases: MIC on nutrient agar and synergistic index (Kull)
Assay type in all cases: cell-based
Alternaria alternata = tested on: Alternaria alternata
From the text: (§1) The term synergism is used when the action of a combination of antimicrobial substances is being evaluated.
(§2) The synergism found for the mixtures according to the invention can be determined via the following mathematical formula (cf. F. C. Kull, P. C. Elisman, H. D. Sylwestrowicz and P. K. Mayer, Appl. Microbiol. 9, 538 (1961):
(§3) Qa=amount of component A in the active substance mixture which achieves the desired effect, i. e. no microbial growth,
(§4) QA=amount of component A which, when used alone, suppresses the growth of the microorganisms,
(§5) Qb=amount of component B in the active substance mixture which suppresses the growth of the microorganisms,
(§6) QB=amount of component B which, when used alone, suppresses the growth of the microorganisms
(§7) If the sum of the ratios for a mixture Qa/QA+Qb/QB=1, additivity is indicated; if it is <1, synergism has occurred; a value of >1 is indicative of antagonism.
(§8) To determine the antimicrobial efficacy and synergy of active ingredients mixtures, the Minimum Inhibitory Concentration (MIC) of the active substances and their respective combinations were determined. The Minimum Inhibitory Concentration of a given antimicrobial compound or mixture is the lowest concentration expressed in […] that under defined in vitro conditions inhibits the growth of a given micro-organism (for example bacteria, mould fungi, yeasts). The growth of the microorganisms is observed on petri dishes containing a defined nutrient agar.
(§9) The antimicrobial efficacy and synergy of combinations based on TBZ, PYM and FDL were determined.

Aureobasidium pullulans = tested on: Aureobasidium pullulans
From the text: as §1, §2, §3, §4, §5, §6, §7, §8, §9

Chaetomium globosum = tested on: Chaetomium globosum
From the text: as §1, §2, §3, §4, §5, §6, §7, §8, §9

Paecilomyces variotii = tested on: Paecilomyces variotii
From the text: as §1, §2, §3, §4, §5, §6, §7, §8, §9

Stachybotris chartarum = tested on: Stachybotris chartarum
From the text: as §1, §2, §3, §4, §5, §6, §7, §8, §9

[1] = Stachybotris chartarum, nutrient agar, read-out: MIC

Structure (SMILES) | MIC (Alternaria alternata) [µg/mL] | MIC (Aureobasidium pullulans) [µg/mL] | MIC (Chaetomium globosum) [µg/mL] | MIC (Paecilomyces variotii) [µg/mL] | MIC (Stachybotris chartarum) [µg/mL] | MIC (Alternaria alternata; nutrient agar, read-out: MIC) [µg/mL] | MIC (Aureobasidium pullulans; nutrient agar, read-out: MIC) [µg/mL] | MIC (Chaetomium globosum; nutrient agar, read-out: MIC) [µg/mL] | MIC (Paecilomyces variotii; nutrient agar, read-out: MIC) [µg/mL] | MIC (Stachybotris chartarum; [1]) [µg/mL]
N#Cc1c[nH]cc1-c1cccc2c1OC(F)(F)O2 [FDL, fludioxonil] | 5 | 1500 | 1500 | 175 | 5 | – | – | – | – | –
c1ccc2[nH]c(-c3cscn3)nc2c1 [TBZ, thiabendazole] | – | – | – | – | – | 250 | 5 | 5 | 5 | 50
Cc1cc(C)nc(Nc2ccccc2)n1 [PYM, pyrimethanil] | – | – | – | – | – | 25 | 175 | 250 | 90 | 100

— patent publication US12369584B2, “Fungicide mixtures” (LANXESS Deutschland GmbH, priority 2019, dated 2025)
